Columns and labels:
[1] = NOVARTIS: Cytotoxicity against human hepatocellular carcinoma cell line (Huh7); type: toxicity, cell-based, Huh-7; settings: Huh7 cells (hepatocellular carcinoma cell line)
Plasmodium falciparum [2] = test: NOVARTIS: Inhibition of Plasmodium falciparum 3D7 (drug-susceptible) proliferation in erythrocyte-based infection assay; type: functional, organism-based; settings: Plasmodium falciparum, 3D7
Plasmodium falciparum [3] = test: NOVARTIS: Inhibition of Plasmodium falciparum W2 (drug-resistant) proliferation in erythrocyte-based infection assay; type: functional, organism-based; settings: Plasmodium falciparum, W2; read-out: EC50

| SMILES | CC50 [1] [nM] | EC50 (Plasmodium falciparum [2]) [nM] | EC50 (Plasmodium falciparum [3]) [nM] |
| --- | --- | --- | --- |
| CC(=O)NC(=Cc1ccc(OC(F)F)cc1)C(=O)O | > 100000 | > 12500 | 2270 |
| COc1ccc2c(c1)N(C(=O)CSc1nc3ccccc3o1)C(C)(C)c1ssc(=S)c1-2 | > 100000 | 345 | 392 |
| CC(=O)C1=C(O)C(=O)N(c2ccc(Br)cn2)C1c1ccccc1[N+](=O)[O-] (centres undefined) | > 100000 | > 9610 | > 12500 |
| CCOC(=O)c1cnc2ccccc2c1Nc1ccc(OC)c(OC)c1 | 85400 | 66.5 | 84.6 |
| CCOc1cc2c(cc1OCC)C(c1cc(OC)c(O)cc1Cl)NCC2 (centres undefined) | 74200 | 362 | 95.8 |
| CCCCCCC(NC(=O)OCc1ccccc1)S(=O)(=O)c1ccc(C)cc1 (centres undefined) | > 100000 | > 12500 | 5800 |
| O=C(Nc1ccc(Br)cc1C(=O)c1ccccc1)c1cc2nc(-c3cccs3)cc(C(F)(F)F)n2n1 | > 100000 | > 12500 | 1760 |
| Cc1nc(Oc2ccc3ccc(=O)oc3c2)c2c3c(sc2n1)CCCCC3 | > 10000 | 2300 | > 1250 |
| CCOC(=O)C1=CN(C)C=C(C(=O)OCC)C1c1cc(Br)c(OCC)c(OC)c1 | > 100000 | 913 | 897 |
| O=C(CN1CCCC1)Nc1ccc(Cc2ccc(NC(=O)CN3CCCC3)cc2)cc1 | 18800 | 307 | 367 |
| N#Cc1c(N)nc(SCC(=O)c2ccc(Cl)cc2)c(C#N)c1-c1ccco1 | > 100000 | 2280 | 595 |
| COc1ccc2cc(CNCCc3cccc(Cl)c3)c(N3CCC(=O)N(CCN(C)C)CC3)nc2c1 | > 10000 | > 1250 | 77.2 |
| Nc1ccnc2cc(Cl)ccc12 | 72000 | 415 | 57.6 |
| O=C(C=Cc1cccnc1)C12CC3CC(CC(C3)C1)C2 | > 100000 | 216 | 122 |
| CN(C)C=Nc1nn(C)cc1C(=O)Nc1ccc(F)c(Cl)c1 | > 100000 | > 7010 | 264 |
| O=C(Cn1c(=O)oc2cc(S(=O)(=O)N3CCCC3)ccc21)Nc1cccnc1 | > 10000 | > 951 | 169 |
| COc1ccc(OC)c(-c2csc(N(CCCN(C)C)C(=O)Cc3ccccc3)n2)c1 | 17700 | 4050 | 3430 |
| COc1cccc(-c2ccc(O)c(CNCC3CCCCC3)c2)n1 | 46600 | 58.5 | 17.7 |
| CCN1C(=O)N(CC(N)=O)C(=O)C12CCN(Cc1ccc(N(C)c3ccccc3)cc1)CC2 | 57800 | > 12500 | 7790 |
| COc1ccc(N2C(=O)C3C(C2=O)C2(c4ccccc4)C(=O)C3(c3ccccc3)C(c3ccc4c(c3)OCO4)=C2c2ccc3c(c2)OCO3)c([N+](=O)[O-])c1 (centres undefined) | > 100000 | 1160 | 938 |
| CN1CCC(NCCc2ccc(Cl)cc2)CC1 | 18900 | 909 | 210 |
| CCCCNC(=O)c1ccc2c(c1)N=C(c1cccc(OCC)c1)N(CCCN1CCCC1=O)C2 | > 10000 | > 752 | > 1250 |
| COc1cc2nc(C3CCC3)n(NC(=O)c3cccc(F)c3)c(=O)c2cc1OC | > 10000 | > 1250 | > 1060 |
| Cc1ccc(O)c(NC(=O)c2cnn3c(C(F)(F)F)cc(-c4ccccc4)nc23)c1 | > 100000 | 1820 | 472 |

| SMILES | CC50 [1] [nM] | EC50 (Plasmodium falciparum [2]) [nM] | EC50 (Plasmodium falciparum [3]) [nM] |
| --- | --- | --- | --- |
| CCCCCCCCC(=O)Nc1c(C)cccc1C | > 10000 | > 1250 | 26.7 |
| CC(C)(C)c1ccc(NC(=O)CN2CCCCC2)cc1 | 49700 | > 12500 | > 8770 |
| COc1ccc(OC)c(-c2ccc(O)c(CNCCc3ccc(F)cc3)c2)c1 | > 10000 | 1050 | < 23.2 |
| Cc1ccn2c(NC(C)(C)CC(C)(C)C)c(-c3ccccc3OC(=O)c3cccc(Cl)c3)nc2c1 | > 10000 | 424 | 9.89 |
| CN(C)CCCNC(=O)c1ccc(-c2cncc(-c3cccc(O)c3)n2)cc1 | > 10000 | 923 | > 1250 |
| COc1cccc(NC(=O)Cn2c(C)c(C(C)=O)c3ccccc32)c1 | > 100000 | 1760 | 713 |
| Cc1cc2nc3ccc(N(C)C)cc3[n+](-c3ccccc3)c2cc1N | > 10000 | 156 | 31.2 |
| Cc1noc(C)c1S(=O)(=O)N(Cc1ccccc1)CC(O)CN1CCC(NC(=O)c2ccccc2Cl)C1 (centres undefined) | > 10000 | 256 | 99.7 |
| Cc1ccc2c(c1)C1CN(C)CCC1N2C(=O)c1cc2ccccc2o1 (centres undefined) | > 10000 | > 1040 | > 922 |
| Cn1cc([N+](=O)[O-])c(C(=O)NN=Cc2c[nH]c3ccccc23)n1 | > 10000 | 1940 | 1100 |
| CO[C@H]1[C@H](C)[C@@H]([C@H]2CC[C@H]([C@@H]3CC[C@H]([C@@]4(C)O[C@]5(O[C@H](C[C@@H]6O[C@](O)([C@@H](C)C(=O)O)[C@@H](C)[C@H](O[C@H]7CC[C@H](OC)[C@@H](C)O7)[C@@]6(C)OC)C[C@@H](OC)[C@H]5C)[C@H](C)[C@H]4OC)O3)O2)O[C@](C)(O)[C@@H]1C | 2420 | 13.3 | 1.93 |
| CCSc1nc2sc3c(c2c(=O)n1CC)CCN(C)C3 | > 100000 | 1410 | 923 |
| Oc1ccc(-c2ccnc3cc(Cl)ccc23)cc1CNCCN1CCOCC1 | > 11900 | 984 | 622 |
| COCCOC(=O)C1=C(C)NC2=C(C(=O)CC(c3ccc(OC)c(OC)c3)C2)C1c1ccccc1F (centres undefined) | > 100000 | 82 | 11.8 |
| CCCC(=O)O[C@]1(C(=O)CCl)[C@@H](C)CC2C3CCC4=CC(=O)C=C[C@]4(C)[C@@]3(F)C(=O)C[C@@]21C (some centres undefined) | > 10000 | 1680 | 283 |
| Cc1ccc(NC=C2C(=O)NC(=S)NC2=O)cc1 | > 100000 | > 12500 | > 9490 |
| NS(=O)(=O)c1ccc(CCNC(=O)/C=C/c2ccc3c(c2)OCO3)cc1 | > 10000 | > 1400 | > 583 |
| Nc1nonc1-n1nnc(C(=O)NN=Cc2cccc(Cl)c2)c1-c1ccccc1 | > 100000 | 427 | 441 |
| COC(=O)C1=C(C)NC(=Cc2cc(C)n(-c3ccccc3F)c2C)C1=O | > 100000 | 20 | 38.3 |
| CC1(C)O[C@@H]2OC([C@@H](O)CNc3ccc([N+](=O)[O-])cc3[N+](=O)[O-])C(O)[C@@H]2O1 (some centres undefined) | 12000 | 299 | 366 |
| Cc1ccccc1NC(=S)NC(Cc1ccccc1)c1ccccc1 (centres undefined) | > 10000 | 374 | 340 |
| COc1cc2nc(NCc3ccccc3)n3nc(-c4cccnc4)nc3c2cc1OC | > 100000 | > 12500 | 810 |
| O=C1Nc2ccccc2C12Nc1ccccc1-c1nc3ccccc3n12 (centres undefined) | > 100000 | 1090 | 502 |
| O=C(Nc1nc2ccccc2s1)c1ccc(S(=O)(=O)N2CCOCC2)cc1 | > 10000 | > 1250 | > 46.1 |
